From PubChem BioAssay (NCI)
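Growth conditions: 96-well plates. Treatment: test compound, 48 hours, 5 concentrations. Analysis: linear interpolation between bracketing concentrations; unreached endpoints set to highest concentration. At the TGI there is no net growth.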

How the values were obtained:
Assay in all cases: growth of human tumour cells (NCI), 48 h
A498 renal = tested on: A498 renal
DU-145 prostate = tested on: DU-145 prostate
HT29 colon = tested on: HT29 colon
IGROV1 ovarian = tested on: IGROV1 ovarian
NCI-H23 lung = tested on: NCI-H23 lung
OVCAR-3 ovarian = tested on: OVCAR-3 ovarian
OVCAR-4 ovarian = tested on: OVCAR-4 ovarian
PC-3 prostate = tested on: PC-3 prostate
RPMI-8226 leukemia = tested on: RPMI-8226 leukemia
SF-268 CNS = tested on: SF-268 CNS
SK-MEL-5 melanoma = tested on: SK-MEL-5 melanoma
SK-OV-3 ovarian = tested on: SK-OV-3 ovarian
SN12C renal = tested on: SN12C renal
HL-60(TB) leukemia = tested on: HL-60(TB) leukemia

| SMILES | TGI (A498 renal) [µM] | TGI (DU-145 prostate) [µM] | TGI (HT29 colon) [µM] | TGI (IGROV1 ovarian) [µM] | TGI (NCI-H23 lung) [µM] | TGI (OVCAR-3 ovarian) [µM] | TGI (OVCAR-4 ovarian) [µM] | TGI (PC-3 prostate) [µM] | TGI (RPMI-8226 leukemia) [µM] | TGI (SF-268 CNS) [µM] | TGI (SK-MEL-5 melanoma) [µM] | TGI (SK-OV-3 ovarian) [µM] | TGI (SN12C renal) [µM] | TGI (HL-60(TB) leukemia) [µM] |
| --- | --- | --- | --- | --- | --- | --- | --- | --- | --- | --- | --- | --- | --- | --- |
| C=CCN1C[C@@H](C)N([C@@H](c2ccc(C(=O)N(CC)CC)cc2)c2cccc(OC)c2)C[C@@H]1C | > 100 | > 100 | > 100 | > 100 | > 100 | > 100 | > 100 | > 100 | > 100 | > 100 | > 100 | > 100 | > 100 |  |
| NC(C(=O)OC(=O)c1ccccc1)C(=O)OC(=O)c1ccccc1 | > 100 | > 100 | > 100 |  | > 100 | > 100 | > 100 | > 100 | > 100 | > 100 | > 100 |  | > 100 |  |
| O=P1(Oc2ccccc2)NCc2ncccc2O1 (stereo not given) | > 100 | > 100 | > 100 | > 100 | > 100 | > 100 | > 100 | > 100 | > 100 |  | > 100 |  | > 100 |  |
| O=C(CCc1ccc(O)cc1)NCCCNC(=O)CCc1ccc(O)cc1 | > 100 | > 100 | > 100 | > 100 | > 100 | > 100 | > 100 | > 100 | > 100 | > 100 | > 100 | > 100 | > 100 |  |
| NC(N)=NS(=O)(=O)c1ccc(NC(=O)c2ccc3nc4ccccc4c(N)c3c2)cc1 |  | > 100 | > 100 | > 100 | > 100 | > 100 | > 100 | > 100 | > 100 | > 100 | > 100 | > 100 | > 100 | > 100 |
| COC[C@@H](N=CN1CCc2cc(OC)c(OC)cc2C1)C(C)(C)C |  |  | > 100 | > 100 | > 100 | > 100 | > 100 |  | > 100 | > 100 | > 100 | > 100 | > 100 | > 100 |
| CCOC(=O)C1=C(C)NC(C)=C(C(=O)OCC)C1c1ccc(C)cc1 | 97.9 | > 100 | > 100 | > 100 | > 100 | 87.7 | > 100 | 66 | 85.8 | > 100 | 35.3 | > 100 | 80.5 |  |
| CCN(CC)CC(=O)Nc1ccc2c(c1)C(=O)c1ccc(NC(=O)CN(CC)CC)cc1C2=O | > 100 |  | > 100 | 51.6 | > 100 |  | > 100 |  | > 100 | 82.7 | 48.9 | 88 | > 100 | 44.5 |
| O=C1C=C2CC[C@H]3[C@@H]4CC[C@H](Oc5c6ccccc6nc6ccccc56)[C@H]4CC[C@@H]3[C@H]2CC1 |  | > 100 | > 100 | > 100 | > 100 | > 100 | > 100 | > 100 |  | > 100 | > 100 | > 100 | > 100 | 47.4 |
| CN(C)/C=C/c1c2c(nc3ccccc13)C(=O)c1ccccc1C2=O | 9.24 | 2.69 | 4.85 | 4.71 | 0.882 | 0.622 | 5.42 | 3.77 | 3.49 | 5.26 | 0.536 | 11.7 | 2.84 |  |
| CC(C)(O)CCc1ccc(O)c2c(=O)c3c(O)c4c(cc3oc12)O[C@H]1OC=C[C@@]41O |  |  | > 100 | 0.252 | 0.64 | < 0.01 | 0.222 | > 35.1 | > 33.6 | 8.54 |  | 13.2 | > 100 |  |
| O=[N+]([O-])c1ccc(O)c(C=NCC2CCCN3CCCCC23)c1 (stereo not given) |  | > 100 | > 100 | > 100 | > 100 | > 100 |  | > 100 |  | 75.5 | 69.9 | > 100 |  |  |
| Clc1cccc2c1OCC1C(c3ccccc3)=NN(c3ccccc3)C21 (stereo not given) | > 100 |  | > 100 | > 100 | > 100 | > 100 |  |  | > 100 | > 100 | 90.7 | > 100 |  | > 100 |
| CC1=C/C(=C2/N=C(N(C)C)SS2)C(C)=N1 | > 100 |  | > 100 | > 100 | > 100 | > 100 | > 100 |  | > 100 | > 100 |  | > 100 | > 100 | > 100 |
| COc1ccc2c(c1)CCN1C3=C(CCC3)C(=O)C[C@@H]21 | > 100 |  | > 100 | > 100 | > 100 | > 100 | > 100 |  | > 100 | > 100 | > 100 | > 100 | > 100 | > 100 |
| Cc1ccc([N+](=O)[O-])cc1S(=O)(=O)Nc1ccc(C2=NN(S(=O)(=O)c3cc([N+](=O)[O-])ccc3C)C(c3ccco3)C2)cc1 (stereo not given) |  | > 100 | > 100 | > 100 | > 100 | > 100 | > 100 | > 100 | > 100 | > 100 | > 100 | > 100 | > 100 | 98.2 |
| COc1ccc(/C=C2\CN(C)CC3C2=NN(c2ccccc2)C3c2ccc(OC)cc2)cc1 (stereo not given) | > 100 | > 100 | > 100 | > 100 | > 100 | > 100 | > 100 |  | > 100 | > 100 | > 100 | 55.1 | > 100 |  |
| O=C1C2CC=CCC2C(=O)N1n1c(Cc2ccccc2)n[nH]c1=O (stereo not given) | > 100 |  | > 100 | > 100 | > 100 | > 100 | > 100 | > 100 | > 100 | > 100 | > 100 | > 100 | > 100 |  |
